B1: mG#102: recombinant mouse second Rab protein, SEQ ID NO: 4 (protein)
chain: MQTPHKEHLYKLLVIGDLGVGKTSIIKRYVHQNFSSHYRATIGVDFALKVLHWDPETVVRLQLWDIAGQERFGNMTRVYYREAMGAFIVFDVTRPATFEAVAKWKNDLDSKLXLPNGKPVSVVLLANKCDQGKDVLMNNGLKMDQFCKEHGFVGWFETSAKENINIDEASRCLVKHILANECDLXESIEPDXVKPHLTSXKVXSCSGCAKS
modifications: Mus musculus or Homo sapiens; (113) Thr or Ser.
B2: mG#101: recombinant mouse first Rab protein, SEQ ID NO: 1 (protein)
chain: MLLGDSGVGKTCFLIQFKDGAFLSGTFIATVGIDFRNKVVTVDGXRVKLQIWDTAGQERFRSVTHAYYRDAQALLLLYDITNKSSFDNIRAWLTEIHEYAQRDVVIMLLGNKADXSSERVIRSEDGETLAREYGVPFXETSAKTGMNVELAFLAIAKELKYRAGXQXDEPSFQIRDYVESQKKRSSCCSFV
modifications: Mus musculus or Homo sapiens; (45) Ala or Val.

What was measured:
[1] = tested on: interaction between mG#102 and mA#10283; assay: Two-hybrid recombinant yeast #102 strain growth in histidine defective medium; assay type: cell-based, S. cerevisiae; settings: for specific suppression of #102 strain growth (in words): compared with VT strain; for Suppression (% control) of growth of yeast strain, #102 strain: turbidity 590 nm, 18-20 hr
Method: (§1) Two expression vectors respectively incorporating mG#102 in pAS2-1 vector and mA#10283 in pACT2 vector were introduced into S. cerevisiae CG1945 strain to give a recombinant yeast #102 strain (see Example 3). As a control, recombinant yeast VT strain into which plasmid for positive control (pVA3-1, pTD1-1) of MATCHMAKER Two-Hybrid System 2 had been introduced was prepared. The culture media of #102 strain and VT strain that reached confluent by shake culture overnight at 30° C. in an SD medium supplemented with histidine were diluted 200-fold with a fresh histidine defective SD medium (containing 1 mM 3-AT) and dispensed to a 96 well plate by 0.09 ml/well. A PBS solution containing a compound whose effect is desired to be examined was added to each well, PBS was added to the well of 100% control, and 1M 3-AT-containing PBS solution was added to the well of 0% control respectively in a volume of 0.01 ml/well and mixed by a plate shaker MicroMixer E-36 (manufactured by TAITEC). Then, after static culture at 30° C. for 18-20 hr, culture media were suspended in a plate shaker, and turbidity (absorbance at 590 nm) was measured with a 96 well plate spectrophotometer Multiskan BICHROMATIC (manufactured by Labsystems) The data of the turbidity measured were evaluated on conversion to % control based on the turbidity data of 100% control and 0% control. When a common effect appears between the #102 strain and the VT strain, it was considered a nonspecific effect on the two-hybrid system rather than an effect on the interaction between mG#102 and mA#10283.
(§2) Using the system shown in Example 7, 0.09 ml each of #102 strain yeast or VT strain yeast (control) was placed in each well of a 96 well plate, and a PBS solution containing a particular compound which is unknown as to its effect on the interaction between mG#102 and mA#10283 was added by 0.01 ml, which was followed by culture at 30° C. for 18-20 hr. Then, the culture medium was suspended in a plate shaker and the turbidity (absorbance at 590 nm) was measured with a 96 well plate absorbance meter. The turbidity of the well to which PBS solution without the compound was added was taken as 100% control and the turbidity of the well to which PBS solution containing 3-AT (final concentration 100 mM) instead of the compound was added was taken as 0% control, and the effect of the compound was evaluated by conversion to percentage.

[2] = tested on: interaction between mG#102 and mA#10283; assay: as above; assay type: cell-based, S. cerevisiae; settings: histidine defective SD medium
VT strain [3] = assay: Two-hybrid positive control recombinant yeast VT strain growth (nonspecific effect control); assay type: cell-based, S. cerevisiae
VT strain [4] = assay: as above; assay type: cell-based, S. cerevisiae; settings: turbidity 590 nm, 18-20 hr
Method: as §1, §2

[5] = tested on: mouse bone marrow-derived mast cells (BMMC); assay: IgE/DNP-HSA antigen-induced degranulation of BMMC (hexosaminidase release); assay type: cell-based; settings: for Suppression (% control) of degranulation of mast cell: fluorescence of control group without compound = 100%
Method: BMMC prepared by the method shown in Example 1 was suspended in 10% FBS-containing RPMI at a concentration of 3×10^6/ml. To this BMMC was added a mouse monoclonal anti-DNP IgE antibody (manufactured by YAMASA) at 3 μg/ml, and the mixture was stood at room temperature for 30 min. Then, BMMC treated with an IgE antibody was washed with buffer A (133 mM NaCl, 5 mM KCl, 0.9 mM NaH2PO4, 8 mM glucose, 1 mg/ml BSA, 0.01 mM CaCl2, 20 mM HEPES, pH 7.4) and suspended in buffer A containing 1 mM CaCl2 at a concentration of 3×10^6/ml. This BMMC suspension (0.1 ml/well) was added in a 96 well multiplate and a solution of the compound to be examined (0.05 ml/well) and a DNP-HSA (manufactured by Sigma) solution (40 ng/ml, 0.05 ml/well) as an antigen were added. After standing at room temperature for 30 min, the mixture was centrifuged at 1000 rpm for 5 min and the supernatant was recovered for the 96 well multiplate by 0.05 ml/well. To this supernatant was added a 4-methylumbelliferyl-2-acetamide-2-deoxy-β-D-glucopyranoside (manufactured by Funakoshi Co., Ltd., substrate of hexosaminidase) solution (1 mM; in 0.2 M citrate buffer (pH 4.5)) at 0.05 ml/well. After standing at 37° C. for 90 min, 1M Tris solution (0.15 ml) was added to stop the reaction, and the amount of fluorescence in each well was measured by fluoroscan (manufactured by Labo Systems). The suppressive effect of the compound on the degranulation of BMMC was calculated based on the amount of fluorescence in the control group free of addition of the compound as 100%. As a control compound, tranilast was used.

BMMC = BMMC digitonin degranulation system (histamine release); assay type: cell-based, mouse; settings: protein added to digitonin-permeabilised BMMC, CaCl2 stimulation, histamine RIA
Method: The recombinant protein was added to a BMMC digitonin degranulation system to examine the effect. BMMC was washed twice with a buffer having the following composition to give a suspension at 2×10^6 cells/ml and dispensed to a 96-well U-bottom plate by 0.05 ml/well. Then, mG#101 or mG#102 recombinant protein (0.05 ml/well) was added. Furthermore, 4.5 μM digitonin was added by 0.05 ml/well and the plate was stood at room temperature for 5 min. Thereafter 4 mM CaCl2 was added by 0.05 ml/well and the plate was stood at room temperature for 10 min. After standing, the concentration of histamine liberated in the supernatant was determined by a histamine RIA kit (Eiken Chemical Co., Ltd.). buffer composition:
The recombinant protein was added to the digitonin degranulation system (see Example 5) and the effect was examined.

[6] = compound concentration 0.3 μg/ml
[7] = compound concentration 10 μg/ml
[8] = compound concentration 30 μg/ml

Molecule | specific suppression of #102 strain growth (in words) [1] | Suppression (% control) of growth of yeast strain, #102 strain ([1]; compound concentration 1 μg/ml) | Suppression (% control) of growth of yeast strain, #102 strain ([1]; compound concentration 3 μg/ml) | Suppression (% control) of growth of yeast strain, #102 strain [1, 7] | Suppression (% control) of growth of yeast strain, VT strain (VT strain [4]; compound concentration 1 μg/ml) | Suppression (% control) of growth of yeast strain, VT strain (VT strain [4]; compound concentration 3 μg/ml) | Suppression (% control) of growth of yeast strain, VT strain (VT strain [4]; [7]) | Suppression (% control) of degranulation of mast cell ([5]; concentration 1 μg/ml) | Suppression (% control) of degranulation of mast cell ([5]; concentration 3 μg/ml) | Suppression (% control) of degranulation of mast cell ([5]; concentration 10 μg/ml) | Suppression (% control) of degranulation of mast cell ([5]; concentration 30 μg/ml) | Suppression (% control) of degranulation of mast cell ([5]; concentration 100 μg/ml) | effect of recombinant protein on degranulation (in words) (BMMC) | further results
Nc1nc[nH]n1 [Formula 3-AT, 3-amino-1,2,4-triazole] | – | – | – | – | – | – | – | – | – | – | – | – | – | growth of recombinant yeast strain with 100 mM 3-AT (in words) ([1]; #102 strain, 100 mM 3-AT): neither recombinant yeast strain could grow; concentration of 3-AT wherein the recombinant yeast strain grows in a reporter gene (histidine synthase)-dependent manner [2]: 1 to 10 mM; growth of recombinant yeast strain with 100 mM 3-AT (in words) (VT strain [3]; 100 mM 3-AT): neither recombinant yeast strain could grow; concentration of 3-AT wherein the recombinant yeast strain grows in a reporter gene (histidine synthase)-dependent manner (VT strain [3]; histidine defective SD medium): 1 to 10 mM
CC(C)=NNc1nc(-c2ccc(-c3ccccc3)cc2)cs1 [Formula [III], acetone-4-(4-phenyl)phenyl-1,3-thiazol-2-yl-hydrazone] | specifically suppressed #1022 strain in a dose-dependent manner | 57 % control | 4 % control | 1 % control | 85 % control | 77 % control | 63 % control | 102 % control | 87 % control | 39 % control | 20 % control | 6 % control | – | Suppression (% control) of growth of yeast strain, #102 strain [1, 6]: 99 % control; Suppression (% control) of growth of yeast strain, VT strain (VT strain [4]; [6]): 99 % control; suppression of degranulation of mast cells (in words) [5]: suppressed degranulation of mast cells in a dose-dependent manner
O=C(N/N=C/c1ccc([N+](=O)[O-])o1)c1ccccc1Br [Formula [IV], 5-nitro-2-furaldehyde-2-brombenzoylhydrazne] | specifically suppressed #1022 strain in a dose-dependent manner | 99 % control | 99 % control | 36 % control | 102 % control | 102 % control | 98 % control | – | – | – | – | – | – | Suppression (% control) of growth of yeast strain, #102 strain [1, 8]: −2 % control; Suppression (% control) of growth of yeast strain, VT strain (VT strain [4]; [8]): 63 % control
COc1ccc(/C=C/C(=O)Nc2ccccc2C(=O)O)cc1OC [tranilast, reference compound] | – | – | – | – | – | – | – | 96 % control | 90 % control | 78 % control | 52 % control | 22 % control | – | –
B1 | – | – | – | – | – | – | – | – | – | – | – | – | inhibited degranulation in a concentration dependent manner | –
B2 | – | – | – | – | – | – | – | – | – | – | – | – | inhibited degranulation in a concentration dependent manner | –
